Values after ≈ are worked out from the molar mass of the structure shown.
How the values were obtained:
[1] = for permeation compared to INH (4): PAMPA; for PAMPA log Pe: PBS pH 7.4, 18 h, RT, Pe in cm/s
[2] = Partition (P) and distribution (D) coefficient, shake-flask octan-1-ol/water or PBS
HaCaT cells [3] = tested on: HaCaT cells
Mtb H37Rv strain = test: microbe, parasite or virus in culture; assay type: cell-based; conditions: for MIC50: concentration exhibiting 50% inhibition of mycobacterial growth; for MIC50 / MIC99: wild-type Mtb H37Rv, 96 h; for MIC99: concentration exhibiting 99% inhibition of mycobacterial growth
HaCaT cells [4] = conditions: 24 h at MIC50 and MIC99 values for the Mtb strain
HaCaT cells [5] = tested on: HaCaT cells; remark: listed apart in the source
Mtb = tested on: Mtb; design: method as in PMID 28390957; conditions: against Mtb; cited from earlier work
[6] = Determination of the CC50 value (MTT assay); conditions: human, HaCaT cells (immortalized keratinocytes)
in vitro = conditions: PAMPA, pH 7.4
[7] = octan-1-ol/water, shake-flask, RT

Q: Which “permeation compared to INH (4)” value [1] does the source give for “N′-((1,2-dicarba-closo-dodecaboran-1-yl)ethylidene)isonicotinohydrazide [Compound 20]” here?
A: Its value is “one order of magnitude higher”.

Q: And the “PAMPA log Pe” value [1]?
A: The value was −5.05 ± 0.09.

Q: And the “log P” value [2, 7]?
A: The value was 1.26 ± 0.22.

Q: And the CC50 (HaCaT cells [3])?
A: The CC50 was 81.5 ± 7.23 µM.

Q: What about the MIC50 (Mtb H37Rv strain) of the same molecule?
A: The MIC50 was 0.082 µM.

Q: And the MIC99 (Mtb H37Rv strain)?
A: The MIC99 was 1.60 µM.

Q: What does the source list for “N′-((1,12-dicarba-closo-dodecaboran-1-yl)ethyl)isonicotinohydrazide [Compound 25]”?
A: permeation compared to INH (4) [1]: two orders of magnitude higher; PAMPA log Pe [1]: −4.37 ± 0.04; log P [2, 7]: 1.15 ± 0.14; MIC50 (Mtb H37Rv strain): 0.32 µM; MIC99 (Mtb H37Rv strain): 6.50 µM

Q: For “N′-((1,2-dicarba-closo-dodecaboran-1-yl)ethyl)isonicotinohydrazide [Compound 23]”, which “permeation compared to INH (4)” value [1] is on record?
A: Its value is “two orders of magnitude higher”.

Q: What about the “PAMPA log Pe” value [1] of the same molecule?
A: The value was −4.16 ± 0.05.

Q: And the “log P” value [2, 7]?
A: Its value is 0.64 ± 0.09.

Q: What about the CC50 (HaCaT cells [3]) of the same molecule?
A: Its CC50 is 86.5 ± 4.59 µM.

Q: And the MIC50 (Mtb H37Rv strain)?
A: The MIC50 was 1.60 µM.

Q: What about the MIC99 (Mtb H37Rv strain) of the same molecule?
A: The MIC99 was 4.90 µM.

Q: Which “permeation compared to INH (4)” value [1] does the source give for “N′-((1,2-dicarba-closo-dodecaboran-1-yl)propanoyl)isonicotinohydrazide [Compound 8]” here?
A: Its value is “two orders of magnitude higher”.

Q: And the “PAMPA log Pe” value [1]?
A: The value was −4.98 ± 0.12.

Q: What about the “log P” value [2, 7] of the same molecule?
A: The value was 0.67 ± 0.07.

Q: And the CC50 (HaCaT cells [3])?
A: The CC50 was 86.6 ± 3.63 µM.

Q: And the apoptotic/necrotic cells (HaCaT cells [4])?
A: The apoptotic/necrotic cells was 16.45%.

Q: And the “viable cells (MTT)” value (HaCaT cells [5]; 24 h at concentration consistent with MIC99 for wild-type Mtb)?
A: Its value is 50%.

Q: And the MIC50 (Mtb H37Rv strain)?
A: The MIC50 was 44.70 µM.

Q: And the MIC99 (Mtb H37Rv strain)?
A: Its MIC99 is 100 µM.

Q: For “N′-((7,8-dicarba-nido-undecaboranyl)methylidene)isonicotinohydrazide [Compound 16]”, which “permeation compared to INH (4)” value [1] is on record?
A: Its value is “one order of magnitude higher”.

Q: And the “PAMPA log Pe” value [1]?
A: The value was −5.05 ± 0.30.

Q: What about the “log D7.4” value ([2]; octan-1-ol/PBS, shake-flask, RT) of the same molecule?
A: The value was 0.67 ± 0.04.

Q: What about the CC50 (HaCaT cells [3]) of the same molecule?
A: Its CC50 is 249.4 ± 0.56 µM.

Q: What about the MIC50 (Mtb H37Rv strain) of the same molecule?
A: Its MIC50 is 0.16 µM.

Q: And the MIC99 (Mtb H37Rv strain)?
A: Its MIC99 is 0.33 µM.

Q: Which results are given for “N′-((1,7-dicarba-closo-dodecaboran-1-yl)methylidene)isonicotinohydrazide [Compound 14]”?
A: permeation compared to INH (4) [1]: two orders of magnitude higher; PAMPA log Pe [1]: −4.06 ± 0.09; log P [2, 7]: 2.03 ± 0.09; CC50 (HaCaT cells [3]): 131 ± 3.46 µM; MIC50 (Mtb H37Rv strain): 0.86 µM; MIC99 (Mtb H37Rv strain): 3.40 µM

Q: Which “permeation compared to INH (4)” value [1] does the source give for “N′-((1,12-dicarba-closo-dodecaboran-1-yl)ethylidene)isonicotinohydrazide [Compound 22]” here?
A: The value was “two orders of magnitude higher”.

Q: What about the “PAMPA log Pe” value [1] of the same molecule?
A: Its value is −4.13 ± 0.07.

Q: And the “log P” value [2, 7]?
A: The value was 1.30 ± 0.07.

Q: What about the CC50 (HaCaT cells [3]) of the same molecule?
A: Its CC50 is 80.2 ± 3.81 µM.

Q: What about the MIC50 (Mtb H37Rv strain) of the same molecule?
A: The MIC50 was 0.16 µM.

Q: What about the MIC99 (Mtb H37Rv strain) of the same molecule?
A: The MIC99 was 1.60 µM.

Q: With “N′-((1,12-dicarba-closo-dodecaboran-1-yl)methylidene)isonicotinohydrazide [Compound 15]” as the molecule, how does the “permeation compared to INH (4)” value [1] read?
A: The value was “three orders of magnitude higher”.

Q: What about the “PAMPA log Pe” value [1] of the same molecule?
A: Its value is −3.90 ± 0.17.

Q: And the “log P” value [2, 7]?
A: The value was 2.28 ± 0.20.

Q: What about the CC50 (HaCaT cells [3]) of the same molecule?
A: The CC50 was 305 ± 6.11 µM.

Q: And the MIC50 (Mtb H37Rv strain)?
A: Its MIC50 is 10.30 µM.

Q: And the MIC99 (Mtb H37Rv strain)?
A: The MIC99 was 17.20 µM.

Q: What does the source list for “N′-((1,7-dicarba-closo-dodecaboran-1-yl)ethyl)isonicotinohydrazide [Compound 24]”?
A: permeation compared to INH (4) [1]: two orders of magnitude higher; PAMPA log Pe [1]: −4.85 ± 0.06; log P [2, 7]: 0.66 ± 0.08; CC50 (HaCaT cells [3]): 105 ± 6.13 µM; MIC50 (Mtb H37Rv strain): 0.81 µM; MIC99 (Mtb H37Rv strain): 3.25 µM

Q: With “N′-((1,7-dicarba-closo-dodecaboran-1-yl)ethylidene)isonicotinohydrazide [Compound 21]” as the molecule, how does the “permeation compared to INH (4)” value [1] read?
A: The value was “two orders of magnitude higher”.

Q: What about the “PAMPA log Pe” value [1] of the same molecule?
A: The value was −4.40 ± 0.10.

Q: What about the “log P” value [2, 7] of the same molecule?
A: Its value is 1.66 ± 0.18.

Q: What about the CC50 (HaCaT cells [3]) of the same molecule?
A: The CC50 was 78.23 ± 0.71 µM.

Q: And the MIC50 (Mtb H37Rv strain)?
A: Its MIC50 is 0.16 µM.

Q: And the MIC99 (Mtb H37Rv strain)?
A: The MIC99 was 0.82 µM.

Q: What does the source list for `NNC(=O)c1ccncc1` [4 (INH), pyridine-4-carbohydrazide, reference compound]?
A: MIC (Mtb): 0.20 µg/mL (≈ 1.46 µM); CC50 [6]: 725.8 ± 2.36 µM; logP at 0.5 h ([2]; octan-1-ol/water): -1 ± 0.09; Papp at 18 h (in vitro): 0.617 ×10⁻⁶ cm/s; MIC50 (Mtb H37Rv strain; Mycobacterium tuberculosis): 0.073 µM (≈ 0.01 µg/mL); MIC99 (Mtb H37Rv strain; Mycobacterium tuberculosis): 0.36 µM (≈ 0.0494 µg/mL)

Q: With “N′-((1,12-dicarba-closo-dodecaboran-1-yl)propanoyl)isonicotinohydrazide [Compound 10]” as the molecule, how does the “permeation compared to INH (4)” value [1] read?
A: Its value is “two orders of magnitude higher”.

Q: What about the “PAMPA log Pe” value [1] of the same molecule?
A: The value was −4.65 ± 0.09.

Q: What about the “log P” value [2, 7] of the same molecule?
A: The value was 0.99 ± 0.07.

Q: And the CC50 (HaCaT cells [3])?
A: Its CC50 is 161 ± 3.89 µM.

Q: And the MIC50 (Mtb H37Rv strain)?
A: Its MIC50 is 29.80 µM.

Q: What about the MIC99 (Mtb H37Rv strain) of the same molecule?
A: Its MIC99 is 74.50 µM.

Q: For “N′-((1,7-dicarba-closo-dodecaboran-1-yl)propanoyl)isonicotinohydrazide [Compound 9]”, which “permeation compared to INH (4)” value [1] is on record?
A: The value was “one order of magnitude higher”.

Q: What about the “PAMPA log Pe” value [1] of the same molecule?
A: Its value is −5.09 ± 0.07.

Q: What about the “log P” value [2, 7] of the same molecule?
A: The value was 1.11 ± 0.11.

Q: What about the CC50 (HaCaT cells [3]) of the same molecule?
A: The CC50 was 290.6 ± 1.45 µM.

Q: And the “cytotoxicity / cell viability (MTT)” value (HaCaT cells [5]; 24 h at MIC50 and MIC99 values for the ΔkatG strain)?
A: The value was “did not cause severe cytotoxicity”.

Q: What about the MIC50 (Mtb H37Rv strain) of the same molecule?
A: Its MIC50 is 22.40 µM.

Q: What about the MIC99 (Mtb H37Rv strain) of the same molecule?
A: Its MIC99 is 74.50 µM.

Q: With “1,12-dicarba-closo-dodecaborane-1-carboxylic acid hydrazide [Compound 3]” as the molecule, how does the “growth inhibition of Mtb” value (Mtb H37Rv strain; at 75 µg/mL (0.37 mM)) read?
A: Its value is “not considerably inhibited”.
